Source: US10723707B2, “Heterocyclic substituted 2-amino quinazoline derivatives for the treatment of viral infections” (JANSSEN SCIENCES IRELAND UNLIMITED COMPANY, priority 2012, dated 2020)

What was measured:
Assay type in all cases: cell-based
[1] = test system: interferon-stimulated responsive elements (ISRE); test: Activation of ISRE promoter elements in HEK-ISREluc cells by conditioned media from PBMC; settings: Homo sapiens, compound concentration applied to PBMCs, supernatant transferred to HEK-ISREluc cells, 24 hours, read-out: HEK-ISRE luc (LEC)
Protocol: The potential of compounds to induce IFN-I was also evaluated by measuring the activation of interferon-stimulated responsive elements (ISRE) by conditioned media from PBMC. The ISRE element of sequence GAAACTGAAACT (SEQ ID: 1) is highly responsive to the STAT1-STAT2-IRF9 transcription factor, activated upon binding of IFN-I to their receptor IFNAR (Clontech, PT3372-5W). The plasmid pISRE-Luc from Clontech (ref. 631913) contains 5 copies of this ISRE element, followed by the firefly luciferase ORF. A HEK293 cell line stably transfected with pISRE-Luc (HEK-ISREluc) was established to profile the conditioned PBMC cell culture media.
Briefly, PBMCs were prepared from buffy coats of at least two donors using a standard Ficoll centrifugation protocol. Isolated PBMCs were resuspended in RPMI medium supplemented with 10% human AB serum and 2×10^5 cells/well were dispensed into 384-well plates containing compounds (70 μL total volume). After overnight incubation, 10 μL of supernatant was transferred to 384-well plates containing 5×10^3 HEK-ISREluc cells/well in 30 μL (plated the day before). Following 24 hours of incubation, activation of the ISRE elements was measured by assaying luciferase activity using 40 μL/well Steady Lite Plus substrate (Perkin Elmer) and measured with ViewLux ultraHTS microplate imager (Perkin Elmer). The stimulating activity of each compound on the HEK-ISREluc cells was reported as LEC value, defined as the compound concentration applied to the PBMCs resulting in a luciferase activity at least two fold above the standard deviation of the assay. The LEC in turn indicates the degree of ISRE activation on transfer of a defined amount of PBMC culture medium. Recombinant interferon α-2a (Roferon-A) was used as a standard control compound.

[2] = biological target: T1, human TLR7 (Homo sapiens, UniProt Q9NYK1); test: TLR7 cellular NFκB-luc reporter assay in transiently transfected HEK293 cells; settings: lowest effective concentration, 6 hours incubation
T1 construct: expressed in transfected cells; host or cells: HEK293
T1 sequence (Q9NYK1 27-1049): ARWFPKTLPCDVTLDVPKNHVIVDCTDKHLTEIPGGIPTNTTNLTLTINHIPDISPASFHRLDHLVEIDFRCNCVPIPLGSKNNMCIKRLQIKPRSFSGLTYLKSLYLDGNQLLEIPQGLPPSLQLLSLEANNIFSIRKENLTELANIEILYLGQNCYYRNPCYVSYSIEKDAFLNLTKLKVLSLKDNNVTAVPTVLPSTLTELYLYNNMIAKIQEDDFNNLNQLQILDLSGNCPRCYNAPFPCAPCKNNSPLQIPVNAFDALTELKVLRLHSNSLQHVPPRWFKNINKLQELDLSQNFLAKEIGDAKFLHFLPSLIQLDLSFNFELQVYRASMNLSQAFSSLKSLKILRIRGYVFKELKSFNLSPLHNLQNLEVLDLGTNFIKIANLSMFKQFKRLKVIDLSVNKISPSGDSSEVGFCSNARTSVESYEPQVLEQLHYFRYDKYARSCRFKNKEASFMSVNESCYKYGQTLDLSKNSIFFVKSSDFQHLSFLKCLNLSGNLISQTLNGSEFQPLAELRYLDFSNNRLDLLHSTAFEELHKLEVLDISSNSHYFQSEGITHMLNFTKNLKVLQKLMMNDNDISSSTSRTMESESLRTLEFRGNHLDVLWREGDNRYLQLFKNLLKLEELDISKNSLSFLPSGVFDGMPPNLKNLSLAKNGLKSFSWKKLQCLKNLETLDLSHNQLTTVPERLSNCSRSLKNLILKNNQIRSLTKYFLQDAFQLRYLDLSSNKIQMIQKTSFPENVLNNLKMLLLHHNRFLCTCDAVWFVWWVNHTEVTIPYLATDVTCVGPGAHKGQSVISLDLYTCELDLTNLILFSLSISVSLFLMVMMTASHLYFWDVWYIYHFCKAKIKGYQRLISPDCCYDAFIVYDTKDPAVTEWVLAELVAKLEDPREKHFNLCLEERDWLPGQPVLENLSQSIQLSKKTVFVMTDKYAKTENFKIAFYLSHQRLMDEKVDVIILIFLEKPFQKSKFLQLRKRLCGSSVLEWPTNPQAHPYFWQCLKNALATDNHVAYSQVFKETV
Protocol: (§1) The ability of compounds to activate human TLR7 and/or TLR8 was assessed in a cellular reporter assay using HEK293 cells transiently transfected with a TLR7 or TLR8 expression vector and NFκB-luc reporter construct.
(§2) Briefly, HEK293 cells were grown in culture medium (DMEM supplemented with 10% FCS and 2 mM Glutamine). For transfection of cells in 15 cm dishes, cells were detached with Trypsin-EDTA, transfected with a mix of CMV-TLR7 or TLR8 plasmid (1700 ng), NFκB-luc plasmid (850 ng) and a transfection reagent and incubated for 48 h at 37° C. in a humidified 5% CO2 atmosphere. Transfected cells were then washed in PBS, detached with Trypsin-EDTA and resuspended in medium to a density of 1.25×10^5 cells/mL. Forty microliters of cells were then dispensed into each well in 384-well plates, where 200 nL of compound in 100% DMSO was already present. Following 6 hours incubation at 37° C., 5% CO2, the luciferase activity was determined by adding 15 μL of Steady Lite Plus substrate (Perkin Elmer) to each well and readout performed on a ViewLux ultraHTS microplate imager (Perkin Elmer). Dose response curves were generated from measurements performed in quadruplicates. Lowest effective concentrations (LEC) values, defined as the concentration that induces an effect which is at least two fold above the standard deviation of the assay, were determined for each compound.

[3] = biological target: T2, human TLR8 (Homo sapiens, UniProt Q9NR97); test: TLR8 cellular NFκB-luc reporter assay in transiently transfected HEK293 cells; settings: lowest effective concentration, 6 hours incubation
T2 construct: expressed in transfected cells; host or cells: HEK293
T2 sequence (Q9NR97 27-1041): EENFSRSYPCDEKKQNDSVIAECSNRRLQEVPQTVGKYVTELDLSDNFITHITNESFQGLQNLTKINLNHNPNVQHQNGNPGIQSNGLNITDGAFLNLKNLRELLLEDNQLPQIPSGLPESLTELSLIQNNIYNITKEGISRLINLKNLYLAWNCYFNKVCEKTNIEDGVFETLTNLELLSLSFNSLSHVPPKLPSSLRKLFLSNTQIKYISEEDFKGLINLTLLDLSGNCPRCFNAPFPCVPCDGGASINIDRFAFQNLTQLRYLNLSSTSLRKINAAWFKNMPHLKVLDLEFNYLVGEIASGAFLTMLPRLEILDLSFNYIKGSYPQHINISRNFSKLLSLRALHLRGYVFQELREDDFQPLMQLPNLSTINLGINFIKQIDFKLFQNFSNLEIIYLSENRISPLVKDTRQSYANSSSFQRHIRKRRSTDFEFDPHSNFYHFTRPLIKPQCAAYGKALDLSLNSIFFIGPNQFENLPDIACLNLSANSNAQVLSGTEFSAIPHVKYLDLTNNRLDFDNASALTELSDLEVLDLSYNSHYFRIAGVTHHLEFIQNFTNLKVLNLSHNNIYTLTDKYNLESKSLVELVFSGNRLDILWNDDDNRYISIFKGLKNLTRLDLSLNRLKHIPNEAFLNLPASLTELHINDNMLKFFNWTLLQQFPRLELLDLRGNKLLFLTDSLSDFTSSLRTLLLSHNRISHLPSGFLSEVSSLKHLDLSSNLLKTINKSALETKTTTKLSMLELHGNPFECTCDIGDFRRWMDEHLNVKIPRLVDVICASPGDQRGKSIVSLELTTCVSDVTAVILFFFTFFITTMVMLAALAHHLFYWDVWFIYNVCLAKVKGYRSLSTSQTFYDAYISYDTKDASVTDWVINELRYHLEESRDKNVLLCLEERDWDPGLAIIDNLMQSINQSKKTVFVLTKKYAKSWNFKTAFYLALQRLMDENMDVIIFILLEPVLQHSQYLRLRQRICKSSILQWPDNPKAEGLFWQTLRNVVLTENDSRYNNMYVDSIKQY
Protocol: as §1, §2

| SMILES | minimal effective concentration [1] [µM] | Human TLR 7 (LEC) [2] [µM] | Human TLR 8 (LEC) [3] [µM] |
| --- | --- | --- | --- |
| COc1ccc(F)c2nc(N)nc(NCc3cc(C)on3)c12 [Compound 31] | 0.46 | 0.74 | >25 |
| COc1cccc2nc(N)nc(N[C@@H](C)[C@H](O)c3ccccc3)c12 [Compound 15] | 0.56 | 0.61 | >25 |
| Cc1cc(CNc2nc(N)nc3cccc(C)c23)no1 [Compound 19] | 0.051 | 0.11 | 1.74 |
| Cc1cc(CNc2nc(N)nc3cccc(CO)c23)no1 [Compound 30] | 0.14 | 0.63 | 9.0 |
| Cc1cc(CNc2nc(N)nc3cc(F)ccc23)no1 [Compound 13] | 0.12 | 0.46 | 5.22 |
| CCN(CC)C(=O)c1ccc2c(N[C@H](C)c3ccccn3)nc(N)nc2c1 (single isomer, unassigned) [Compound 26] | 7.33 | 2.14 | >25 |
| COc1cccc2nc(N)nc(N[C@H](c3ccccn3)C(F)(F)F)c12 (single isomer, unassigned) [Compound 3] | 0.47 | 0.76 | >25 |
| COc1cccc2nc(N)nc(N[C@H](C)c3ccccn3)c12 (single isomer, unassigned) [Compound 2] | 0.49 | 0.94 | >25 |
| COCCOc1cccc2nc(N)nc(NCc3cc(C)on3)c12 [Compound 29] | – | 0.082 | 8.15 |
| C[C@@H](Nc1nc(N)nc2c(F)cccc12)c1ccccn1 (single isomer, unassigned) [Compound 9] | 1.68 | 5.21 | >25 |
| CCc1noc([C@@H](C)Nc2nc(N)nc3cccc(OC)c23)n1 (single isomer, unassigned) [Compound 25] | 0.49 | 1.95 | 6.62 |
| COc1cccc2nc(N)nc(NCc3cc(C)on3)c12 [Compound 12] | 0.036 | 0.047 | 1.94 |
| COc1ccc2c(N[C@H](C)c3ccccn3)nc(N)nc2c1 (single isomer, unassigned) [Compound 6] | 0.64 | 3.75 | >25 |
| C[C@H](Nc1nc(N)nc2cccc(F)c12)c1ccccn1 (single isomer, unassigned) [Compound 18] | 7.83 | 8.25 | 24.3 |
| Nc1nc(N[C@@H](CO)[C@@H](O)c2ccccc2)c2ccccc2n1 [Compound 17] | 0.16 | 0.83 | 5.51 |
| COC(=O)c1ccc2c(N[C@H](C)c3ccccn3)nc(N)nc2c1 (single isomer, unassigned) [Compound 8] | 2.11 | 4.94 | – |
| CCn1ncnc1[C@H](C)Nc1nc(N)nc2cccc(OC)c12 (single isomer, unassigned) [Compound 21] | 0.54 | 6.1 | 8.85 |
| C[C@@H](Nc1nc(N)nc2cc(Cl)ccc12)c1ccccn1 (single isomer, unassigned) [Compound 7] | 0.38 | 0.82 | 16.4 |
| COc1cccc2nc(N)nc(N[C@H](C)c3nccs3)c12 (single isomer, unassigned) [Compound 10] | 0.11 | 0.42 | 12.3 |
| C[C@@H](Nc1nc(N)nc2cc(F)ccc12)c1ccccn1 (single isomer, unassigned) [Compound 4] | 0.59 | 0.92 | 19.8 |
| CNC(=O)c1ccc2c(N[C@H](C)c3ccccn3)nc(N)nc2c1 (single isomer, unassigned) [Compound 27] | 5.04 | 8.24 | >25 |
| CC(Nc1nc(N)nc2cc(C(=O)N(C)C)ccc12)c1ccccn1 (stereo not shown) [Compound 23] | 1.62 | 6.67 | >25 |
